Measured values: EP1399158B1, “NON-THERAPEUTIC METHOD OF SUPPRESSING OESTRUS IN MAMMALIAN NON-HUMAN ANIMAL” (Vetcare Oy, priority 2001, dated 2002)

Columns and labels:
beagle bitches = assay: Medical trial of oestrus suppression in beagle bitches (oestrus signs, mating behaviour, vaginal cytology, side effects); assay type: in vivo
Protocol: (§1) A medical trial was conducted at University of Kuopio with six (6) beagle bitches the average weight of which was 10 kg and the age ranged from 1 year and 1 month to 3 years and 11 months. The dogs were given finrozole at a dose of 3 mg/dog/day from the first day of oestrus signs for 21 days. The development of oestrus signs were followed daily and serum samples collected twice a week. The sexual behaviour of a fertile male and the bitches was recorded. The male was allowed to mount and mate the bitches.

[1] = test system: Estradiol-17-β and progesterone; assay: Hormonal analyses of serum samples (estradiol assay/DPC, Coat-A-Count Progesterone/DPC) in the trial; assay type: in vivo; settings: six beagle bitches, 3 mg/dog/day for 21 days
Protocol: as §1
Hormonal analyses were carried out at Swedish University of Agricultural Sciences in the Department of Clinical Chemistry Estradiol-17-β (the modified estradiol assay/DPC) and progesterone (Coat-A-Count Progesterone /DPC) were analysed.

[2] = six beagle bitches, 3 mg/dog/day for 21 days

`N#Cc1ccc(C(C(O)Cc2ccc(F)cc2)n2cncn2)cc1` (single isomer, unassigned) [finrozole, 1-[1-(4-cyanophenyl)-3-(4-fluorophenyl)-2-hydroxypropyl]-1,2,4-triazole, diasteroisomer a + d] was tested, and the “bitches mated (oestrus continued)” value (beagle bitches; of the four bitches in which oestrus continued, fertile male allowed to mount and mate, 3 mg/dog/day for 21 days) was “Three of them were mated”, the bitches conceived (beagle bitches; of the three mated bitches, 3 mg/dog/day for 21 days) was “two conceived” and the “oestrus signs according to vaginal cytology” value (beagle bitches; [2]) was “no difference could be detected”. The “side effects during the treatment” value (beagle bitches; [2]) was “No side effects were seen”, the Oestrus signs (beagle bitches; six beagle bitches, 3 mg/dog/day from the first day of oestrus signs for 21 days) was “disappeared in two bitches of six” and the “time after starting the treatment during which serum estrogen levels decreased” value [1] was 4 to 13 days. For the same compound, the Progesterone levels ([1]; serum) was “increased in five bitches of six” and the serum estrogen levels ([1]; serum samples twice a week) was “decreased in all bitches”.
